Experimental data from PMC7083565, “In vitro metabolism, reaction phenotyping, enzyme kinetics, CYP inhibition and induction potential of ataluren” (Pharmacology Research & Perspectives, 2020).

Tests used:
[1] = Incubation with 16 individual human liver microsomes (correlation analysis); type: in vitro ADME; conditions: 60 minutes, n = 2
Experimental: Ataluren at a concentration of 10 μmol/L, was incubated (n = 2) with 16 individual HLM at 0.5 mg protein concentration/mL for 0 and 60 minutes at 37°C. Enzyme activities for UGTs 1A1, 1A4, 1A6, 1A9, and 2B7 were precharacterized under optimized conditions by the vendor. Incubation mixtures and procedures were essentially the same as the above. The supernatant fractions were analyzed by LC‐MS/MS to quantify the formation of ataluren‐O‐1β‐acyl glucuronide and the loss of ataluren, and the enzyme activities were correlated with precharacterized UGT enzyme activities. Detailed LC‐MS/MS conditions are summarized in LC‐MS/MS Analysis section. […] The ataluren acyl glucuronide formation rate after 60 minutes incubation was calculated using the amount of metabolite formed (pmol) divided by the protein amount in the incubation sample ([…]) and the incubation time (60 minutes). […]
(§1) Quantification of ataluren loss and ataluren‐O‐1β‐acyl glucuronide formation was carried out with an LC‐MS/MS system, which consisted of two Shimadzu LC‐10ADvp pumps, a SPD10‐AVP UV/Vis detector, a Shimadzu SILHTA autosampler, a Shimadzu DGU‐14A degasser, and a Sciex API 4000 QTRAP mass spectrometer equipped with a Turbo Ionspray ionization source that operated in positive ionization mode. […]

UGT1A9 = biological target: T1, UGT1A9 (Homo sapiens, UniProt O60656); assay: Reaction phenotyping with recombinant human UGT enzymes: UGT1A9; type: in vitro ADME; conditions: rUGT1A9 0.25 mg protein/mL, 10 μmol/L, 60 minutes, n = 2
T1 construct: purchased BD Biosciences; host or cells: baculovirus-infected insect cells
T1 sequence (O60656 26-530): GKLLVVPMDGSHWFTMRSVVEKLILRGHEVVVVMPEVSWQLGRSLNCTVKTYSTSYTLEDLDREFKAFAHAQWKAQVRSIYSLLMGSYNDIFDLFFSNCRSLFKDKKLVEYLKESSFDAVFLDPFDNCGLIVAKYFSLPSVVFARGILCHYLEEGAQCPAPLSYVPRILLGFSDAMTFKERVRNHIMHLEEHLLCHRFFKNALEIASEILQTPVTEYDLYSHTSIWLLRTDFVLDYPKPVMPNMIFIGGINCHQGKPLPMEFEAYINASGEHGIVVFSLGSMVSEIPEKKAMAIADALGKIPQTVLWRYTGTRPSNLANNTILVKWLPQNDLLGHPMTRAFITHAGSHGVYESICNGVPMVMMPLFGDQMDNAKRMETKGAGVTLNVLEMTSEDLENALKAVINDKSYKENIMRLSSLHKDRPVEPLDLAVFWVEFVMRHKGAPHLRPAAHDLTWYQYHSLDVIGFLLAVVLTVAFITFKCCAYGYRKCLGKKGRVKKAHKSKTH
Experimental: Ataluren at 10 μmol/L, was incubated (n = 2) with recombinant human uridine diphosphate glucuronosyltransferase (rUGT) enzymes: rUGTs 1A1, 1A3, 1A4, 1A6, 1A7, 1A8, 1A9, 1A10, 2B4, 2B7, 2B15, and 2B17 at 0.25 mg protein/mL. Incubations were conducted in duplicate at 37°C. The incubation mixture (0.2 mL, final volume with 1% methanol) consisted of Tris‐HCl buffer (100 mmol/L, pH 7.7 at 37°C), MgCl2 (10 mmol/L), EDTA (1 mmol/L), saccharic acid 1,4‐lactone (0.1 mmol/L), and UDPGA (8 mmol/L). […] Samples were subjected to centrifugation (920 g for 10 minutes at 10°C) and the supernatant fractions were analyzed by LC‐MS/MS to quantify the formation of ataluren‐O‐1β‐acyl glucuronide and loss of ataluren. […] The ataluren acyl glucuronide formation rate after 60 minutes incubation was calculated using the amount of metabolite formed (pmol) divided by the protein amount in the incubation sample (0.05 mg) and the incubation time (60 minutes).
as §1

O=C(O)c1cccc(-c2noc(-c3ccccc3F)n2)c1 [ataluren, Ataluren]
Rate, Loss of ataluren ([1]; individual HLM sample H0273, 10 μmol/L): 111 pmol/mg/min | Rate, Loss of ataluren ([1]; individual HLM sample H0295, 10 μmol/L): 134 pmol/mg/min | ataluren loss (UGT1A9): 32.7%
